39 compounds from PubChem BioAssay AID785 (University of Pittsburgh Molecular Library Screening Center, 2007) can be followed below.

For orientation: IC50 means the concentration needed to halve the response being measured.

Serine/threonine-protein kinase PLK1 (Homo sapiens), sequence (P53350 whole entry, looked up): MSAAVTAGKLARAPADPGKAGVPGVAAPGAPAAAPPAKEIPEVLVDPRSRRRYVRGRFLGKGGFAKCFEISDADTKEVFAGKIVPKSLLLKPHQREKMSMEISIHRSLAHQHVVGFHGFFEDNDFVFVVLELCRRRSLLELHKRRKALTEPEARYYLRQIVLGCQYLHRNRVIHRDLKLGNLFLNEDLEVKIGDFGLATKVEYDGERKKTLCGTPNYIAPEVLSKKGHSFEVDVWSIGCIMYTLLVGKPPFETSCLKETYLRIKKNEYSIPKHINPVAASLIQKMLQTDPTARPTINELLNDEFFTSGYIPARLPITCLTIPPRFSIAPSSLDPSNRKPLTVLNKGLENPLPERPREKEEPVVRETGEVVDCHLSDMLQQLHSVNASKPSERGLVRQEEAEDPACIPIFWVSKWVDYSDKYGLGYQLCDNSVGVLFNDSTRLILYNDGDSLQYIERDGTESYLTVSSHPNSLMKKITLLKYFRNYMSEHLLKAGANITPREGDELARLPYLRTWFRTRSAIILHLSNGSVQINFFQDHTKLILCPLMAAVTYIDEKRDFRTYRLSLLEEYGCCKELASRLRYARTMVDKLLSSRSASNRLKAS

The experiment concerns the target Serine/threonine-protein kinase PLK1 (Homo sapiens) (UniProt P53350). Kind of experiment: PLK1 kinase inhibitor potency, dose response, biochemical, TR-FRET, IC50 (AID 785). The settings on record: recombinant human Plk1, fluorescence polarization phosphopeptide binding, 3 h. (TR-FRET usually uses a lanthanide donor and a delayed reading to cut background.)
Consider `Cc1cc(C(C#N)c2cccc(Cl)c2)n2ncnc2n1` (centres undefined), for which the 50% inhibitory concentration (IC50) is 5.98 µM.

Consider `O=c1[nH]cnc2cc(-c3ccccc3)sc12`, for which the half-maximal inhibitory concentration (IC50) was 6.2 µM.

As for `N#C/C(=N\Nc1c(Cl)cccc1Cl)C(=O)NN`, the half-inhibitory concentration (IC50) was 0.814 µM.

`Nc1nc2ccc([N+](=O)[O-])c(N)c2s1`: the IC50 was 0.235 µM.

Regarding `Nc1ncnc(Nc2ccccc2C(F)(F)F)n1`, the 50% inhibitory concentration (IC50) is 4.84 µM.

Take `Cc1ncc([N+](=O)[O-])n1CCOC(=O)Nc1ccc(Cl)c(Cl)c1`: the IC50 was 0.775 µM.

For the compound `C=CCNc1nc(N)c(C(=O)c2ccc3c(c2)OCO3)s1`, the half-maximal inhibitory concentration (IC50) is 3.85 µM.

Regarding `COC(=O)c1c(-c2ccc(Br)cc2)noc1N`, the half-inhibitory concentration (IC50) is 7.93 µM.

With `O=C(O)c1ccc2c(c1)[C@@H]1C=CC[C@@H]1[C@H](c1ccccn1)N2`, the IC50 is 16.9 µM.

As to `COc1ccc(Cn2c(N)c(C(=O)NCc3ccco3)c3nc4ccccc4nc32)cc1OC`, the 50% inhibitory concentration (IC50) was 8.82 µM.

As for `Cc1[nH]nc2c1C1(CCN(Cc3ccccc3)CC1)C(C#N)=C(N)O2`, the concentration for half-maximal inhibition (IC50) was 1.4 µM.

For `Nc1[nH]ncc1N=Nc1ccc(Cl)cc1`, the IC50 is 2.22 µM.

As for `Cc1oc2ncnc(N)c2c1C`, the half-inhibitory concentration (IC50) is 3.75 µM.

On to `COc1ccc(N2Nc3n[nH]c(N)c3N2)cc1`, for which the 50% inhibitory concentration (IC50) is 1.64 µM.

Turning to `c1ccc2c(-c3ccncc3)c[nH]c2c1`, the IC50 was 4.12 µM.

As to `NC(=O)c1ccc(C(F)(F)F)n(Cc2cccc(Cl)c2)c1=O`, the half-maximal inhibitory concentration (IC50) was 22.8 µM.

On to `CC1Cc2nc(SCC(=O)Nc3nccs3)n(C)c(=O)c2S1` (centres undefined), for which the half-maximal inhibitory concentration (IC50) was 9.72 µM.

`CCOc1c(Br)ccc2c1sc1nc[nH]c(=O)c12`: the IC50 was 2.15 µM.

`CCc1nc2n[nH]c(N)c2c2c1CSC(C)(C)C2`: the IC50 was 5.1 µM.

Take `Nc1[nH]ncc1C(=O)Nc1cccc(C(F)(F)F)c1`: the IC50 is 0.888 µM.

For the compound `CC1CCN(c2ncnc3nc[nH]c23)CC1`, the IC50 is 3.13 µM.

In the case of `CCOC(=O)c1sc2nc[nH]c(=O)c2c1C`, the IC50 was 3.09 µM.

Consider `Nc1ncnc(Nc2cccc(C(F)(F)F)c2)n1`, for which the 50% inhibitory concentration (IC50) was 0.469 µM.

For `COc1cccc(Nc2ncnc3nc[nH]c23)c1`, the 50% inhibitory concentration (IC50) is 2.37 µM.

As for `Cc1c(C(=O)OC(C)C)sc2nc[nH]c(=O)c12`, the IC50 is 4.01 µM.

As to `CCOC(=O)c1c(-c2ccncc2)csc1N`, the concentration for half-maximal inhibition (IC50) is 7.01 µM.

In the case of `CCOc1ccc(N2Nc3n[nH]c(N)c3N2)cc1`, the IC50 was 3.4 µM.

Turning to `COc1ccccc1Nc1ncnc2nc[nH]c12`, the IC50 was 1.01 µM.

Regarding `O=c1[nH]cnc2sc(-c3ccccc3)cc12`, the IC50 is 6.08 µM.

As to `Cc1cccc(Nc2ncnc3nc[nH]c23)c1`, the half-maximal inhibitory concentration (IC50) is 2.23 µM.

As to `COc1cc(/C=C(\C#N)c2[nH]nc(N)c2C#N)cc(OC)c1O`, the half-inhibitory concentration (IC50) was 1.86 µM.

For `Cc1nc2c([nH]1)C1(CCN(Cc3ccccc3)CC1)C(C#N)=C(N)O2`, the IC50 was 0.823 µM.

With `N#Cc1c(-c2ccc3c(c2)OCO3)csc1N`, the IC50 was 10.7 µM.

Turning to `NNc1ncnc2c1cnn2-c1ccccc1`, the IC50 was 4.18 µM.

Turning to `O=c1[nH]cnc2scc(-c3cccs3)c12`, the IC50 was 4.24 µM.

Regarding `O=C(CSc1n[nH]c(-c2ccc(Cl)cc2Cl)n1)Nc1ccccn1`, the half-inhibitory concentration (IC50) is 0.534 µM.

For the compound `O=C(Nc1cccnc1)c1cnn2cccnc12`, the IC50 was 4.07 µM.

On to `COC(=O)c1sc2nc[nH]c(=O)c2c1C`, for which the half-maximal inhibitory concentration (IC50) was 1.44 µM.

With `Cc1cccc(N=Nc2c(N)n[nH]c2-c2ccc(Cl)cc2)c1`, the IC50 was 18.5 µM.
